The supplement of paper PMC4862054

How the values were obtained:
Experiment in all cases: normalised response (% of control), CellTox Green; higher = less cell death (100 = DMSO, 0 = benzethonium chloride kill control)
Settings in all cases: incubation time: 72 h
[1] = system: BT-474
Summary of the method: (§1)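 The table gives the normalised signal for a single concentration in each entry. Breast cancer cell lines were seeded (20 µl suspension) into 384-well plates holding compound at 5 concentrations in 10-fold steps over a compound-specific 10,000-fold range and incubated 72 h, then read for CellTox Green fluorescence (485/520 nm) and CellTiter-Glo luminescence. Normalisation on each plate used 0.1 % DMSO (100) and a positive kill control (0).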

[2] = system: BT-549
Summary of the method: as §1

[3] = system: CAL-120
Summary of the method: as §1

[4] = system: CAL-148
Summary of the method: as §1

[5] = system: CAL-51
Summary of the method: as §1

[6] = system: CAL-85-1
Summary of the method: as §1

[7] = system: DU-4475
Summary of the method: as §1

[8] = system: HCC1143
Summary of the method: as §1

[9] = system: HCC1599
Summary of the method: as §1

[10] = system: HCC1937
Summary of the method: as §1

[11] = system: HDQ-P1
Summary of the method: as §1

[12] = system: Hs578T
Summary of the method: as §1

[13] = system: MCF-10A
Summary of the method: as §1

[14] = system: MDA-MB-231
Summary of the method: as §1

[15] = system: MDA-MB-436
Summary of the method: as §1

[16] = system: MDA-MB-453
Summary of the method: as §1

[17] = system: MDA-MB-468
Summary of the method: as §1

[18] = system: MFM-223
Summary of the method: as §1

| Structure (SMILES) | normalised response [1] [%] | normalised response [2] [%] | normalised response [3] [%] | normalised response [4] [%] | normalised response [5] [%] | normalised response [6] [%] | normalised response [7] [%] | normalised response [8] [%] | normalised response [9] [%] | normalised response [10] [%] | normalised response [11] [%] | normalised response [12] [%] | normalised response [13] [%] | normalised response [14] [%] | normalised response [15] [%] | normalised response [16] [%] | normalised response [17] [%] | normalised response [18] [%] |
| --- | --- | --- | --- | --- | --- | --- | --- | --- | --- | --- | --- | --- | --- | --- | --- | --- | --- | --- |
| C[C@]12O[C@H](C[C@]1(O)CO)n1c3ccccc3c3c4c(c5c6ccccc6n2c5c31)CNC4=O [Lestaurtinib] (1000 nM) | 77.2 | 50 | 65.5 | 67 | 111 | 21.5 | 71.7 | 73.5 | 57.5 | 89.6 | 76.4 | 25.3 | 66 | 89.2 | 51.6 | 104 | 107 | 89.8 |
| Cc1nc(Nc2ncc(C(=O)Nc3c(C)cccc3Cl)s2)cc(N2CCN(CCO)CC2)n1 [Dasatinib] (100 nM) | 94.4 | 85.9 | 97.2 | 98.8 | 68.4 | 74 | 102 | 70.1 | 95.6 | 5.95 | 90.2 | 90.8 | 112 | 84.3 | 107 | 97.2 | 101 | 91.5 |
| COc1cc(CCc2cc(NC(=O)c3ccc(N4CC(C)NC(C)C4)cc3)n[nH]2)cc(OC)c1 (configuration not stated) [AZD4547] (100 nM) | 96.5 | 118 | 99.3 | 101 | 95.6 | 108 | 97.8 | 82 | 90.6 | 113 | 89.4 | 94 | 105 | 90.1 | 91 | 100 | 117 | 97.4 |
| Cc1ccc(Nc2nccc(N(C)c3ccc4c(C)n(C)nc4c3)n2)cc1S(N)(=O)=O [Pazopanib] (1000 nM) | 104 | 127 | 101 | 106 | 107 | 101 | 100 | 99.3 | 105 | 101 | 94.3 | 110 | 77 | 99.5 | 64.8 | 95.2 | 50 | 102 |
